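96-well plates; 48 h exposure; 5 concentrations. Endpoints by linear interpolation between flanking doses. Not reached: highest tested concentration assigned. Here, GI50 denotes the concentration required for 50% inhibition of growth. TGI: total growth inhibition.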
How the values were obtained:
Assay in all cases: growth of human tumour cells (NCI), 48 h
[1] = system: NCI-H522 lung
[2] = system: RPMI-8226 leukemia
[3] = system: MDA-MB-435
[4] = system: PC-3 prostate
[5] = system: RXF 393 renal
[6] = system: A498 renal
[7] = system: LOX IMVI melanoma
[8] = system: DU-145 prostate
[9] = system: SF-539 CNS
[10] = system: MDA-MB-231 breast
[11] = system: UO-31 renal
[12] = system: COLO 205 colon
[13] = system: NCI-H226 lung
[14] = system: HT29 colon
[15] = system: IGROV1 ovarian
[16] = system: HL-60(TB) leukemia
[17] = system: SK-OV-3 ovarian
[18] = system: SNB-19 CNS
[19] = system: OVCAR-3 ovarian
[20] = system: HCT-116 colon
[21] = system: EKVX NSCLC
[22] = system: KM12 colon
[23] = system: SK-MEL-28 melanoma
[24] = system: ACHN renal
[25] = system: MCF7 breast
[26] = system: NCI/ADR-RES ovarian
[27] = system: HCC-2998 colon
[28] = system: SW-620 colon
[29] = system: OVCAR-4 ovarian
[30] = system: HCT-15 colon
[31] = system: NCI-H23 lung
[32] = system: UACC-62 melanoma
[33] = system: MALME-3M melanoma
[34] = system: TK-10 renal
[35] = system: SF-268 CNS
[36] = system: U251 CNS
[37] = system: T-47D breast
[38] = system: HOP-62 NSCLC
[39] = system: CCRF-CEM leukemia
[40] = system: SNB-75 CNS
[41] = system: CAKI-1 renal
[42] = system: SN12C renal
[43] = system: SF-295 CNS
[44] = system: BT-549 breast
[45] = system: OVCAR-5 ovarian
[46] = system: K-562 leukemia
[47] = system: SK-MEL-5 melanoma
[48] = system: SR leukemia
[49] = system: HS 578T breast
[50] = system: 786-0 renal
[51] = system: OVCAR-8 ovarian
[52] = system: MOLT-4 leukemia
[53] = system: A549 NSCLC
[54] = system: NCI-H460 lung
[55] = system: HOP-92 NSCLC
[56] = system: SK-MEL-2 melanoma
[57] = system: UACC-257 melanoma
[58] = system: M14 melanoma

`CCN(CC)c1ccc(/C=N/NC(=O)c2ccc(S(N)(=O)=O)cc2)cc1` gave a GI50 [1] of 0.403 µM, a TGI [1] of 23.2 µM and a GI50 [2] of 2.84 µM. It also gave a TGI [2] of 13.7 µM, a GI50 [3] of 0.975 µM and a TGI [3] of over 100 µM. For the same compound, the GI50 [4] was 0.469 µM, the TGI [4] was 73.4 µM and the GI50 [5] was 1.1 µM. For the same compound, the TGI [5] was 3.8 µM, the GI50 [6] was 4.26 µM and the TGI [6] was 29.3 µM. The GI50 [7] was 0.271 µM, the TGI [7] was 4.51 µM and the GI50 [8] was 0.828 µM. For the same compound, the TGI [8] was over 58.6 µM, the GI50 [9] was 0.488 µM and the TGI [9] was 8.11 µM. It also gave a GI50 [10] of 0.525 µM, a TGI [10] of 64.3 µM and a GI50 [11] of 0.487 µM. The TGI [11] was 24 µM, the GI50 [12] was 0.437 µM and the TGI [12] was 19 µM. The GI50 [13] was 1.39 µM, the TGI [13] was 23.9 µM and the GI50 [14] was 0.614 µM. The TGI [14] was 17.3 µM, the GI50 [15] was 0.69 µM and the TGI [15] was over 100 µM. It also gave a GI50 [16] of 0.255 µM, a TGI [16] of 4.38 µM and a GI50 [17] of 0.533 µM. The TGI [17] was 21.4 µM, the GI50 [18] was 1.12 µM and the TGI [18] was over 64.8 µM. The GI50 [19] was 0.244 µM, the TGI [19] was over 100 µM and the GI50 [20] was 0.324 µM. The TGI [20] was 19.2 µM, the GI50 [21] was 0.782 µM and the TGI [21] was over 82.1 µM. For the same compound, the GI50 [22] was 0.811 µM, the TGI [22] was over 63.3 µM and the GI50 [23] was 0.495 µM. It also gave a TGI [23] of over 67.4 µM, a GI50 [24] of 0.605 µM and a TGI [24] of 22.3 µM. It also gave a GI50 [25] of 0.488 µM, a TGI [25] of over 100 µM and a GI50 [26] of 3.11 µM. It also gave a TGI [26] of over 100 µM, a GI50 [27] of 0.612 µM and a TGI [27] of 51 µM. The GI50 [28] was 0.597 µM, the TGI [28] was over 100 µM and the GI50 [29] was 0.397 µM. The TGI [29] was over 77.6 µM, the GI50 [30] was 0.419 µM and the TGI [30] was 44.2 µM. It also gave a GI50 [31] of 2.11 µM, a TGI [31] of over 100 µM and a GI50 [32] of 0.499 µM. The TGI [32] was 8.78 µM, the GI50 [33] was 0.856 µM and the TGI [33] was 11.3 µM. It also gave a GI50 [34] of 1.76 µM, a TGI [34] of 47.8 µM and a GI50 [35] of 0.328 µM. It also gave a TGI [35] of 25.8 µM, a GI50 [36] of 0.268 µM and a TGI [36] of 18.7 µM. For the same compound, the GI50 [37] was 0.686 µM, the TGI [37] was over 72.3 µM and the GI50 [38] was 0.338 µM. It also gave a TGI [38] of 11.9 µM, a GI50 [39] of 0.178 µM and a TGI [39] of over 100 µM. The GI50 [40] was 0.496 µM, the TGI [40] was 5.91 µM and the GI50 [41] was 0.488 µM. It also gave a TGI [41] of 25.8 µM, a GI50 [42] of 0.957 µM and a TGI [42] of over 100 µM. It also gave a GI50 [43] of 0.739 µM, a TGI [43] of 18.3 µM and a GI50 [44] of 1 µM. For the same compound, the TGI [44] was 8.29 µM, the GI50 [45] was 2.58 µM and the TGI [45] was over 100 µM. For the same compound, the GI50 [46] was 0.479 µM, the TGI [46] was over 100 µM and the GI50 [47] was 1.42 µM. For the same compound, the TGI [47] was over 100 µM, the GI50 [48] was 0.0839 µM and the TGI [48] was 3.07 µM. The GI50 [49] was 2.37 µM, the TGI [49] was 40.8 µM and the GI50 [50] was 0.61 µM. For the same compound, the TGI [50] was 4.67 µM, the GI50 [51] was 0.406 µM and the TGI [51] was over 52.6 µM. It also gave a GI50 [52] of 0.373 µM, a TGI [52] of 15 µM and a GI50 [53] of 1.78 µM. It also gave a TGI [53] of over 100 µM, a GI50 [54] of 0.51 µM and a TGI [54] of 10.4 µM. It also gave a GI50 [55] of 0.43 µM, a TGI [55] of 14.6 µM and a GI50 [56] of 3.17 µM. It also gave a TGI [56] of 20.7 µM, a GI50 [57] of 0.869 µM and a TGI [57] of 7.9 µM.

`CC(=O)Oc1ccccc1C(=O)Nc1ccc(C(=O)/C=C/c2ccncc2)cc1` showed a GI50 [1] of over 100 µM, a TGI [1] of over 100 µM and a GI50 [2] of 15 µM. It also gave a TGI [2] of 49.2 µM, a GI50 [3] of 27.8 µM and a TGI [3] of over 100 µM. The GI50 [4] was 49.8 µM, the TGI [4] was over 100 µM and the GI50 [5] was 24.4 µM. It also gave a TGI [5] of 98.9 µM, a GI50 [6] of over 100 µM and a TGI [6] of over 100 µM. The GI50 [7] was 12.8 µM, the TGI [7] was 34.8 µM and the GI50 [8] was 58.2 µM. It also gave a TGI [8] of over 100 µM, a GI50 [9] of 30.5 µM and a TGI [9] of over 100 µM. The GI50 [10] was over 100 µM, the TGI [10] was over 100 µM and the GI50 [11] was 63.2 µM. The TGI [11] was over 100 µM, the GI50 [12] was 38.1 µM and the TGI [12] was over 100 µM. For the same compound, the GI50 [13] was over 100 µM, the TGI [13] was over 100 µM and the GI50 [14] was 30.5 µM. The TGI [14] was over 100 µM, the GI50 [15] was 51.7 µM and the TGI [15] was over 100 µM. The GI50 [16] was 34.8 µM, the TGI [16] was over 100 µM and the GI50 [17] was over 100 µM. The TGI [17] was over 100 µM, the GI50 [18] was over 100 µM and the TGI [18] was over 100 µM. The GI50 [19] was 36.1 µM, the TGI [19] was over 100 µM and the GI50 [20] was 13.3 µM. It also gave a TGI [20] of 28.2 µM, a GI50 [21] of over 100 µM and a TGI [21] of over 100 µM. The GI50 [22] was 25.9 µM, the TGI [22] was over 100 µM and the GI50 [23] was over 100 µM. The TGI [23] was over 100 µM, the GI50 [24] was 59.7 µM and the TGI [24] was over 100 µM. For the same compound, the GI50 [25] was 6.13 µM, the TGI [25] was over 100 µM and the GI50 [26] was over 100 µM. The TGI [26] was over 100 µM, the GI50 [58] was 40.8 µM and the TGI [58] was over 100 µM. The GI50 [27] was 22.2 µM, the TGI [27] was 55.2 µM and the GI50 [28] was 24.3 µM. It also gave a TGI [28] of over 100 µM, a GI50 [29] of 85.8 µM and a TGI [29] of over 100 µM. It also gave a GI50 [30] of 25.7 µM, a TGI [30] of over 100 µM and a GI50 [32] of over 100 µM. For the same compound, the TGI [32] was over 100 µM, the GI50 [33] was over 100 µM and the TGI [33] was over 100 µM. The GI50 [34] was over 100 µM, the TGI [34] was over 100 µM and the GI50 [35] was 61.8 µM. The TGI [35] was over 100 µM, the GI50 [36] was 35.6 µM and the TGI [36] was over 100 µM. The GI50 [37] was 60 µM, the TGI [37] was over 100 µM and the GI50 [38] was over 100 µM. It also gave a TGI [38] of over 100 µM, a GI50 [40] of over 100 µM and a TGI [40] of over 100 µM. The GI50 [41] was 42.8 µM, the TGI [41] was over 100 µM and the GI50 [42] was 55.3 µM. The TGI [42] was over 100 µM, the GI50 [43] was over 100 µM and the TGI [43] was over 100 µM. For the same compound, the GI50 [44] was 25.1 µM, the TGI [44] was over 100 µM and the GI50 [45] was over 100 µM. The TGI [45] was over 100 µM, the GI50 [46] was 22.7 µM and the TGI [46] was over 100 µM. The GI50 [47] was over 100 µM, the TGI [47] was over 100 µM and the GI50 [48] was 22.4 µM. The TGI [48] was 89.5 µM, the GI50 [49] was 57.4 µM and the TGI [49] was over 100 µM. It also gave a GI50 [50] of over 100 µM, a TGI [50] of over 100 µM and a GI50 [51] of over 100 µM. For the same compound, the TGI [51] was over 100 µM, the GI50 [52] was 40.2 µM and the TGI [52] was over 100 µM. The GI50 [53] was over 100 µM, the TGI [53] was over 100 µM and the GI50 [54] was 36.6 µM. It also gave a TGI [54] of over 100 µM, a GI50 [55] of 4.6 µM and a TGI [55] of over 100 µM. It also gave a GI50 [56] of over 100 µM, a TGI [56] of over 100 µM and a GI50 [57] of over 100 µM. It also gave a TGI [57] of over 100 µM.

Source: PubChem BioAssay (NCI)
